In patent US7335355B2, “Antimicrobial agent” (Hansa Medical AB, priority 2000, dated 2008):
Like-named read-outs stand apart in the source and are kept apart here.

Key:
P. aeruginosa elastase = settings: 1 hour; for Inhibition of LL-37 degradation by P. aeruginosa elastase: 12 mU elastase; for Inhibition of LL-37 degradation by P. aeruginosa elastase by sulphated saccharides: 1 μg LL-37, 12 mU elastase, 15 μl 10 mM Tris-buffer
E. faecalis gelatinase [1] = biological target: T1, E. faecalis gelatinase (Enterococcus faecalis, UniProt Q833V7); format: biochemical; settings: 6 mU gelatinase, 1 hour
T1 construct: The E. faecalis strain contained gelatinase and supernatants were used directly; made in house; host or cells: Enterococcus faecalis isolate from a chronic venous wound (natural producer); unpurified culture supernatant

[2] = biological target: T2, S. pyogenes cysteine proteinase (Streptococcus pyogenes, UniProt P0C0J0)
Target sequence in this assay (P0C0J0 146-398 limits assumed): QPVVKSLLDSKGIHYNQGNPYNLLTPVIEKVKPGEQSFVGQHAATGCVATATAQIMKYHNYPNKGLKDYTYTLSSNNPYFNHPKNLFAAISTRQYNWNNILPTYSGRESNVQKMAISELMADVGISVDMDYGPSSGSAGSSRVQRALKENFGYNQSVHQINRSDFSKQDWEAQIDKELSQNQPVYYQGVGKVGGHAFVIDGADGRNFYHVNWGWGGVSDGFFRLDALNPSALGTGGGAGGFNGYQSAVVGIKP

[3] = biological target: T2, S. pyogenes cysteine proteinase; remark: listed apart in the source
LL-37 = biological target: T3, LL-37 (Homo sapiens, UniProt P49913); assay: Slot-binding assay: iodinated dermatan sulphate (DS36) binding to LL-37 on nitrocellulose, competition; settings: LL-37 0.2-5 μg on nitrocellulose
T3 sequence (P49913 134-170 limits assumed): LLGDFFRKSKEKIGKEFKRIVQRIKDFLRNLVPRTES
Method: LL-37 (0.2-5 μg) was applied onto nitrocellulose and incubated with iodinated dermatan sulphate (DS36). Different polysaccharides were added for competition of binding. DS36, DS18, DS13 (dermatan sulphate 36, 18, and 13), CS4 and CS6 (chondroitin sulphate 4 and 6), CS-D (chondroitin sulphate D) and CS-E (chondroitin sulphate E).
LL-37 (0.2-5 μg) was applied onto nitrocellulose and incubated with iodinated dermatan sulphate (DS36). Different cationic substances, as indicated on top of the various panels, were added for competition of binding. (a), p-1-lys; poly-L-lysine, p-1-arg; poly-L-arginine, DEAE; DEAE-dextran, PB; polybrene. (b), CH; chitosan, PEI, polyethyleneimine, PM; protamine, PMX; polymyxin B, PMXnp; polymyxin B nonapeptide.
Radioiodination of DS36 was performed according to previous protocols (F Cheng, K. Yoshida, D. Heinegard, L. Å. Fransson, Glycobiology, 2, 553 (1992)). Slot-binding assays were carried out as follows: α-defensin peptide I (Bachem, Switzerland) was blotted onto nitrocellulose membranes (Hybond, Amersham). Membranes were blocked (PBS, pH 7.4, 0.25% Tween 20, 3% bovine serum albumin) for 1 h and incubated with radiolabelled DS (˜20 μl/ml) for 1 h in the same buffer. Unlabelled polysaccharides were added for competition of binding (2 mg/ml). The membranes were washed (3×10 min) (PBS, pH 7.4, 0.25% Tween 20). Bas 2000 radioimaging system (Fuji) was used for visualization of radioactivity.
LL-37 (0.2-5 μg) was applied onto nitrocellulose and incubated with iodinated dermatan sulphate (DS36). Different polysaccharides were added for competition of binding: DS36, DS18, DS13, CS-4, CS-6, CS-D (chondroitin sulphate D) and CS-E (chondroitin sulphate E). […] Radiolabelled DS was, however, displaced by DS-36, DS18, DS13 and CS-E.
The effects of various cationic molecules on the DS-LL-37 interaction were monitored using slot-blot assays as described in Example 2. DS binding to LL-37 was blocked by poly-L-lysine, poly-L-arginine, DEAE-dextran, polybrene, chitosan and polyethyleneimine.

E. faecalis [4] = assay: Bactericidal assay of LL-37 after incubation with P. aeruginosa elastase; format: cell-based, Enterococcus faecalis; settings: 0.1 μg LL-37, E. faecalis 2×10^6 cfus/ml, 2 h, 37° C.
E. faecalis gelatinase [5] = biological target: T4, E. faecalis gelatinase (Enterococcus faecalis, UniProt Q833V7); format: biochemical; settings: 1 μg LL-37, 3 mU, 1 hour and 6 hours
T4 construct: The E. faecalis strain contained gelatinase and supernatants were used directly; made in house; host or cells: Enterococcus faecalis isolate from a chronic venous wound (natural producer); unpurified culture supernatant
T4 sequence (Q833V7 whole entry, looked up): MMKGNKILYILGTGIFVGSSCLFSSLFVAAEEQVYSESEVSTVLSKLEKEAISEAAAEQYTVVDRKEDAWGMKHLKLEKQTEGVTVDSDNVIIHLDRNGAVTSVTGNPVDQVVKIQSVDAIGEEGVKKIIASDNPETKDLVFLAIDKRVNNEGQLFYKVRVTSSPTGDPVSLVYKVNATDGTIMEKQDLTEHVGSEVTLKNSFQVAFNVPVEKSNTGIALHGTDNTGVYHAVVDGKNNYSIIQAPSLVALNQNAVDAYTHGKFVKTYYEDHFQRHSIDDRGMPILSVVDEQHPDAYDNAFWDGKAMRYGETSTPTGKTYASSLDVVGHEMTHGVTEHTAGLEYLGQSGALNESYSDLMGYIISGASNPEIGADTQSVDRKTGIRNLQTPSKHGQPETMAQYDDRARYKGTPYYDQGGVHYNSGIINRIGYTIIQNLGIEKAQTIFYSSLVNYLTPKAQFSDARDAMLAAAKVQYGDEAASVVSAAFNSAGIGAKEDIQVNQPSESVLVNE

α-defensin 1 = biological target: T5, α-defensin 1 (Homo sapiens, UniProt P59665); assay: Slot-binding assay: radioiodinated DS binding to blotted α-defensin 1, competition by unlabelled polysaccharides; settings: unlabelled polysaccharide 2 mg/ml, ~100-fold excess
T5 construct: purchased Bachem, Switzerland
T5 sequence (P59665 65-94 limits assumed): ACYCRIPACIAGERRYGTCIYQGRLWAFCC
Method: 0.2-5 μg α-defensin 1 was blotted onto nitrocellulose and probed with radioiodinated dermatan sulfate (DS).

E. faecalis [6] = assay: Anti-microbial assay (CFU) with α-defensin 1 with or without GAG chains; settings: 2 h, 37° C.
Method: FIG. 1A illustrates the killing of bacteria by α-defensin. 2×10^6 CFU/ml of S. pyogenes (□) E. faecalis (●) and P. aeruginosa (◯) were incubated with α-defensin at the indicated peptide concentrations for 2 h (S. pyogenes and E. faecalis) or 4 h (P. aeruginosa) at 37° C., and CFU were determined.
For anti-microbial assays S. pyogenes, E. faecalis and P. aeruginosa were grown to mid-log phase in TH-medium. Bacteria were washed and diluted in 10 mM Tris-HCl, pH 7.5, containing 5 mM glucose. 50 μl bacteria (2×10^6 cfu/ml) were incubated with α-defensin at concentrations ranging from 0-40 μg/ml with or without the addition of various GAG chains at concentrations of 2-400 μg/ml. Incubations were carried out at 37° C. for 2 h (S. pyogenes and E. faecalis) or 4 h (P. aeruginosa). To quantitate the microbicidal activity serial dilutions of the incubation mixture were plated on TH agar, incubated at 37° C. over night and the number of CFU were determined.

S. pyogenes = assay: as above; settings: 2 h, 37° C.
P. aeruginosa = assay: as above; format: cell-based, Pseudomonas aeruginosa; settings: 4 h, 37° C.

c1cnc2c(c1)ccc1cccnc12 [1,10-phenantroline, reference compound]
Inhibition of LL-37 degradation by P. aeruginosa elastase (P. aeruginosa elastase; inhibitor 2 mM): Degradation was abolished | Inhibition of LL-37 degradation by E. faecalis gelatinase (E. faecalis gelatinase [1]; inhibitor 2 mM): Degradation was abolished

CC(C)C[C@H](NC(=O)[C@H]1O[C@@H]1C(=O)O)C(=O)NCCCCN=C(N)N [E64]
Effect on degradation of decorin and high molecular weight proteoglycans by S. pyogenes extracellular products [2]: completely blocked the effect | Effect on degradation of decorin by S. pyogenes cysteine proteinase [2]: abolished degradation | Inhibition of LL-37 degradation by S. pyogenes cysteine proteinase [3]: Degradation was abolished

CNC(=O)[C@H](Cc1c[nH]c2ccccc12)NC(=O)[C@@H](CC(=O)NO)CC(C)C [GM6001, reference compound]
Inhibition of LL-37 degradation by P. aeruginosa elastase (P. aeruginosa elastase; inhibitor 100 μM): Degradation was abolished | Inhibition of LL-37 degradation by E. faecalis gelatinase (E. faecalis gelatinase [1]; inhibitor 100 μM): Degradation was abolished

O=S(=O)(O)OC[C@H]1O[C@@](COS(=O)(=O)O)(O[C@H]2O[C@H](COS(=O)(=O)O)[C@@H](OS(=O)(=O)O)[C@H](OS(=O)(=O)O)[C@H]2OS(=O)(=O)O)[C@@H](OS(=O)(=O)O)[C@@H]1OS(=O)(=O)O [sucroseoctasulphate]
Inhibition of LL-37 degradation by P. aeruginosa elastase by sulphated saccharides (P. aeruginosa elastase): inhibited the degradation

CC(=O)NC1C(O)OC(COS(=O)(=O)O)C(OS(=O)(=O)O)C1OC1OC(C(=O)O)=CC(O)C1OS(=O)(=O)O [ΔUA(2S)-GalNAc(4,6S)]
Inhibition of LL-37 degradation by P. aeruginosa elastase by sulphated saccharides (P. aeruginosa elastase): inhibited the degradation

DEAE-dextran
Effect of cationic molecules on DS binding to LL-37 (LL-37): blocked

LL-37: cationic antimicrobial peptide LL-37 (SEQ ID NO: 1)
Bactericidal activity of LL-37 after incubation with P. aeruginosa elastase (E. faecalis [4]): inactivated | Degradation of LL-37 by S. pyogenes cysteine proteinase [3]: degradation of LL-37 by bacterial proteinases | Degradation of LL-37 by E. faecalis gelatinase (E. faecalis gelatinase [5]): degradation of LL-37 by bacterial proteinases

Polymyxin B [reference compound]
Effect of cationic molecules on DS binding to LL-37 (LL-37): did not block the binding

chitosan
Effect of cationic molecules on DS binding to LL-37 (LL-37): blocked

dextran
Competition of radiolabelled DS binding to α-defensin 1 by unlabelled polysaccharide (α-defensin 1): not

dextran sulfate
Competition of radiolabelled DS binding to α-defensin 1 by unlabelled polysaccharide (α-defensin 1): displaced the radiolabelled DS

heparin [reference compound]
Competition of radiolabelled DS binding to α-defensin 1 by unlabelled polysaccharide (α-defensin 1): displaced the radiolabelled DS

poly-L-arginine
Effect of cationic molecules on DS binding to LL-37 (LL-37): blocked

poly-L-lysine
Effect of cationic molecules on DS binding to LL-37 (LL-37): blocked

polybrene
Effect of cationic molecules on DS binding to LL-37 (LL-37): blocked

polyethyleneimine
Effect of cationic molecules on DS binding to LL-37 (LL-37): blocked

polymyxin B nonapeptide [reference compound]
Effect of cationic molecules on DS binding to LL-37 (LL-37): did not block the binding

protamine [reference compound]
Effect of cationic molecules on DS binding to LL-37 (LL-37): Reduced levels of binding

α-defensin 1: cationic antimicrobial peptide α-defensin (SEQ ID NO: 2), from Bachem
α-defensin 1 concentration at which bacteria were effectively killed (E. faecalis [6]): ≥ 4 µg/mL | α-defensin 1 concentration at which bacteria were effectively killed (S. pyogenes): ≥ 4 µg/mL | α-defensin 1 concentration at which bacteria were effectively killed (P. aeruginosa): ≥ 4 µg/mL
